# Reference: a melting point compilation (Tetko et al.; mined from patent text by program, amines drawn as free bases though some values may be those of a salt)
row,SMILES,melting point [°C]
1,COc1ccc(C2=C(c3ccc(S(N)(=O)=O)cc3)CCC2)cc1Cl,179 to 180
2,Cc1c(F)c(F)c(C(N)=O)c(F)c1F,157 to 158
3,Cc1ccc2cc(C)[nH]c2c1,74 to 76
4,O=[N+]([O-])c1cc(Cl)c(Cl)cc1NCCCCl,78
5,C[C@H](C#Cc1scc(Cc2ccc(F)cc2)c1Cc1ccc(F)cc1)N(O)C(N)=O,128 to 130
6,CS(=O)c1ccc2c(c1)OC(C)(C)O2 (configuration not stated),87 to 88
7,O=C(NC(Cc1ccc(OCc2ccccc2F)cc1)C(=O)O)c1cn2ccc(-c3ccc(Cl)cc3)cc2n1 (configuration not stated),250 to 252
8,Cc1oc2cc3sc4ccccc4c3c(-c3cc(I)c(O[C@H](C)C(=O)O)c(I)c3)c2c1C,218 to 219
9,CN(C)c1ncc2c(n1)-c1ccc(Cl)cc1C(c1ccccc1F)=NC2,175 to 179
10,C#CC(OC)Oc1cc(Cc2cnc(N)nc2N)cc(OC)c1OC (configuration not stated),153 to 155
11,COc1ccc(S(=O)(=O)C2(C(=O)O)CCN(C)CC2)cc1,204
12,COc1ccc(CCN(C)CCC2CN(C)C(=S)c3cccnc3O2)cc1 (configuration not stated),75 to 78
13,O=[N+]([O-])c1cc(Cc2ccc[nH]2)cc(O)c1O,115 to 118
14,O=C(CBr)c1ccc(Br)s1,79
15,NC(=O)C(CCCCCCCCCCCCC(C(N)=O)C1CC1)C1CC1 (configuration not stated),157 to 158
16,CN(C)Cc1ccc(CSCCNC(=S)NC(=O)c2ccccc2)o1,83 to 85
17,O=C(O)COc1ccc(C(=O)c2ccccc2O)c(Cl)c1Cl,201 to 203
18,CN(C=O)c1ccc(F)c(Cl)c1,47 to 48
19,O=c1[nH]c2ccccc2n2cc(-c3ccccc3)cc12,301 to 303
20,O=C(Nc1ccc2c(c1)CCNO2)c1cc2cc(F)ccc2n1Cc1cccc(F)c1,216 to 217
21,O=C1CCC(Cc2ccccc2)CC1,40 to 44
22,COc1ccc2c(C(=S)N(C)CC(=O)O)cccc2c1SC(F)(F)F,168 to 169
23,CCCOc1ccc2c(c1)[C@H](c1ccc(OC)cc1OCC(=O)O)[C@@H](CC(=O)O)[C@@H]2c1ccc2c(c1)OCO2 (racemic),210 to 212
24,Cc1ccc(NC(=O)c2cccc(N(C)C)c2)cc1NC(=O)c1ccccc1O,136 to 139

row,SMILES,melting point [°C]
1,Nc1ncc2cc(-c3ccccc3)c(O)nc2n1,390 to 395
2,CC(=O)SC(C)CNC(=O)c1cc(Cl)cc(C)c1NC(=O)c1cc(C(F)(F)F)nn1-c1ncccc1Cl (configuration not stated),137 to 139
3,CN1CCC(Oc2ccc(N)cc2)(c2ccccc2)CC1,174 to 175
4,CCOC(=O)C(NC(C)=O)(C(=O)OCC)c1ccc([N+](=O)[O-])cn1,82 to 83
5,COc1ccc(SC2CC(=O)NC2=O)cc1 (configuration not stated),93 to 94
6,CCOC(=O)C1CCCN(S(=O)(=O)c2ccc3[nH]c(=O)c4cccc5c4c3c2C5)C1 (configuration not stated),215 to 218
7,N[C@@H](Cc1ccccc1)C(=O)N(C(=O)Cc1cc(F)cc(F)c1)[C@@H]1C(=O)Nc2ccccc2S[C@@H]1c1ccccc1,115 to 120
8,CCOC(=O)c1c(-c2ccc(O)cc2)c(C#N)c(=O)n2ccccc12,284 to 290
9,Fc1ccc2[nH]cc(C3=CCN(CC4CCc5ccc6ncccc6c5O4)CC3)c2c1 (configuration not stated),148
10,CCOC(=O)c1cn2c(cc(-c3cccc(Cl)c3)c3cc(C(c4ccc(Cl)cc4)c4nncn4C)ccc32)n1 (configuration not stated),220
11,CC(=O)c1cccc(NC(=O)C=C(C)Cl)c1,152
12,NC(=O)Cc1ccc(-c2csc(N=C(N)N)n2)o1,219 to 220
13,CCOC(=O)C(=O)Nc1ccc(C#N)c2ccccc12,164
14,O=c1n(CCO)c2ccccc2n1CCO,145 to 158
15,CCCC(=O)OCC(=O)C1(OC(=S)CC)CCC2C3CC(C)C4=CC(=O)C=CC4(C)C3C(O)CC21C (configuration not stated),126 to 128
16,CC(=O)NC[C@H]1CN(c2cc(F)c(C3CCN(C(=O)COCc4ccccc4)CC3)c(F)c2)C(=O)O1,169 to 171
17,CNC(=O)Nc1snc(N(C)C)c1C#N,240 to 241
18,c1ccn(NC2=NCCN2)c1,183 to 184
19,COC(=O)Cc1c(Cl)ncnc1OC,64
20,CN(C)CN=c1[nH]c2cnccc2s1,125 to 127
21,CCOCOc1cc(C)ccc1-c1cc(-c2cccc([N+](=O)[O-])c2)c(C#N)c(N)n1,148 to 149
22,Cc1nccn1-c1nc(-c2ccc(Cl)cc2)c(CCCOc2ccccc2CCCO)o1,119 to 120
23,O=C1CC2(C(=O)N1)C(=O)N1CCCc3cccc2c31 (configuration not stated),253 to 255
24,CCNC(=O)c1ccc(C#CCc2ccc3c(c2)C(C)(C)CCC3(C)C)cc1,128 to 129

row,SMILES,melting point [°C]
1,[N-]=[N+]=Nc1cnn(-c2cc(-c3ccnc(Nc4cccc(Cl)c4)n3)ccn2)c(=O)c1Cl,184 to 186
2,CC(C)C(=O)Oc1c(-c2ccc(-c3ccccc3)cc2)nc2ccc(F)cc2c1C(=O)O,201 to 204
3,O=C(NCC1(c2ccccc2)CCCCC1)Nc1ccc(Br)cc1,172 to 173
4,CC(=O)N1C(=O)NC(=O)C12c1ccccc1N(C)C(=O)N2C (configuration not stated),261 to 263
5,O=CNc1ccc(-c2ccc(C(=O)N3CCN4CCC3CC4)o2)cc1,236
6,CNC1CCN(c2nc3c(cc2F)c(=O)c(C(=O)O)cn3C2CC2)C1 (configuration not stated),233 to 235
7,Nc1c(C(=O)c2ccccc2O)oc2ccc(Cl)cc12,208 to 210
8,CC(C(=O)O)c1ccc(CC2CCCC2=O)cc1 (configuration not stated),108 to 111
9,CCOC(=O)c1cnc2n(c1=O)C(C)CCC2=NNc1ccccc1 (configuration not stated),138 to 139
10,COc1ccc(C(=O)Nc2c(C)c(C)c3c(c2C)C(c2ccc(C(C)C)cc2)C2(CCN(C)CC2)O3)cc1 (configuration not stated),277 to 278
11,O=C(SCCC(=O)N1c2ccccc2CC1C(=O)O)c1ccccc1 (configuration not stated),173 to 175
12,O=C(c1ccc(F)cc1)C1CCN(CCCCn2c(=O)[nH]c3cscc3c2=O)CC1,190 to 192
13,O=C1C2=C(CCCC2)C(=S)N1c1ccc(Cl)cc1F,101 to 102
14,FC(F)(F)c1cc2[nH]c(N3CCN(c4ncccc4C(F)(F)F)CC3)nc2cc1Cl,206 to 208
15,C[C@](O)(COc1ccc(Cl)c(F)c1)C(=O)Nc1ccc(C#N)c(C(F)(F)F)c1,132 to 134
16,CCCCOC(=O)c1cc(OCc2ccccc2)c2c(Cl)cc(Cl)cc2n1,130 to 132
17,CC(C)(O)C(=O)Nc1ccc(Sc2ccc(NS(C)(=O)=O)cc2)cc1Cl,138 to 140
18,CCS(=O)(=O)CCn1c(=N)sc2cc(C(F)(F)C(F)(F)F)ccc21,125
19,CC(C)C(N)CN1CCC(Nc2nc3ccccc3[nH]2)CC1 (configuration not stated),138
20,CCc1nc2c(C)cc(C)nc2n1Cc1ccc2c(c1)c1ccccc1n2CCC#N,180 to 181
21,CC(C)CCS(=O)(=O)NC(=O)CCc1cc(OC(C)C)nn1Cc1ccc(Cl)cc1Cl,143 to 145
22,COc1cc(N)c2nc(Cl)cc(C)c2c1Oc1cccc(C(F)(F)F)c1,133 to 135
23,CC(O)=C1C(=O)CC(c2cc(Cl)sc2Cl)CC1=O (configuration not stated),107 to 108
24,N#Cc1ccc(N(Cc2ccc(OCc3ccccc3)cc2)n2cnnc2)cc1,206 to 211
